Where “and” joins values, the source holds several entries; their conditions need not be identical. Identical values can stand only once. Like-named read-outs stand apart in the source and are kept apart here.
Columns and labels:
[1] = Acid/base stability by NMR; settings: diethylamine in deuterated chloroform; directly afterwards and after 20 hours
Procedure: Diethylamine (2 ml) was added to a solution of 4′-aziridinoterpyridine (5 mg) in deuterated chloroform in a NMR tube.
NMR spectra were recorded immediately and after 1, 2, 4 and 24 hours.

[2] = system: CH1 human ovarian carcinoma cell line; test: 96 h growth inhibition, sulforhodamine B assay, CH1; type: cell-based; settings: 96 h exposure, v = variable (mean)
[3] = system: CH1cis^R human ovarian carcinoma cell line (cisplatin resistant); test: 96 h growth inhibition, sulforhodamine B assay, CH1cisR; type: cell-based; settings: for IC50: 96 h exposure, growth inhibition, v = variable (mean); for RF resistance factor: IC50 resistant line/IC50 parent line: CH1cis^R / CH1
[4] = system: CH1dox^R human ovarian carcinoma cell line (doxorubicin resistant); test: 96 h growth inhibition, sulforhodamine B assay, CH1doxR; type: cell-based; settings: for IC50: 96 h exposure, growth inhibition; for RF resistance factor: IC50 resistant line/IC50 parent line: CH1dox^R / CH1
[5] = system: A2780 human ovarian carcinoma cell line; test: 96 h growth inhibition, sulforhodamine B assay, A2780; type: cell-based; settings: 96 h exposure, v = variable (mean)
[6] = system: A2780cis^R human ovarian carcinoma cell line (cisplatin resistant); test: 96 h growth inhibition, sulforhodamine B assay, A2780cisR; type: cell-based; settings: for IC50: 96 h exposure, growth inhibition, v = variable (mean); for RF resistance factor: IC50 resistant line/IC50 parent line: A2780cis^R / A2780
[7] = system: SKOV3 human ovarian carcinoma cell line; test: 96 h growth inhibition, sulforhodamine B assay, SKOV3; type: cell-based; settings: 96 h exposure, v = variable (mean)
T. cruzi (MHOM/BR/00/Y) = test: Trypanosoma cruzi in mouse peritoneal macrophages; type: cell-based
Procedure: Trypanosoma cruzi: […] Drug activity was determined from the % of infected macrophages in treated cultures. Nifurtimox was used as the positive control.

[8] = system: T. brucei (S427) bloodstream trypomastigotes; test: Trypanosoma brucei bloodstream trypomastigote culture; type: cell-based
polyfd(A-T)2) = test: Circular dichroism equilibrium binding
From the text: (§1) The double positive charge on 4-picoline-2,2′:6′,2″-terpyridine-platinum(II), together with the intercalative binding mode is probably responsible for the large binding constant.

DNA [9] = test: Ligation assay (DNA unwinding); type: binding
From the text: as §1

DNA [10] = test: Fluorescence spectroscopy, ethidium bromide displacement; type: binding
From the text: as §1

[11] = system: CHl human ovarian carcinoma subcutaneously implanted xenograph; test: CH1 human ovarian carcinoma xenograft in vivo
Procedure: In view of the in vitro results, compound (A) was investigated in vivo using the CHl human ovarian carcinoma subcutaneously implanted xenograph. The compound was administered intraperitoneally at weekly intervals for 4 weeks. Two dose levels were used; 30 and 60 mg/kg. Tumours were approximately 6-8 mm maximum diameter at the beginning of treatment. […] Two endpoints were determined, the 28 day T/C (the ratio of Treated versus Control volumes at day 28 post initial treatment) and the growth delay (GD: the difference in time taken for Treated versus Control groups to double in volume).
At the lower dose there was a growth delay (GD) 83.1. […] It seems likely that by using a still lower and more frequent drug schedule (e.g. daily) greater control over tumour growth could be achieved.

[12] = Single intraperitoneal injection toxicity in tumour-bearing mice (ADJ/PC6); type: in vivo
Procedure: Compound (A) was also administered as a single intraperitoneal injection in water to mice bearing subcutaneously implanted tumours e.g. ADJ/PC6 (according to the standard protocol for evaluating platinum complexes).

calf-thymus (ct)-DNA = settings: literature [1]-[3]; cited from earlier work
[13] = system: P falciparum (chloroquin resistant strain K1); test: In vitro antimalarial activity, chloroquine resistant K1; settings: for % Inhibition (compound duplicates), K1 P. falciparum: duplicates (1),(2)
Procedure: Plasmodium falciparum: P falciparum (chloroquin resistant strain K1) was cultured at 37° C. in a 5% suspension of infected so erythrocytes (group A Rh^+) in complete medium as described by E L Elueze, S L Croft and D C Warhurst, J Antimicrobial Chemotherapy, 1996, 37, 511-518. The in vitro antimalarial activity of compounds were likewise determined according to their protocol. Mefloquin was used as the positive control.”

[14] = deuterated water; NMR immediately, 1, 2, 17 hours, one and two weeks
Procedure: A solution of (4-picoline) (4′-aziridinoterpyridine) platinum (II) tetrafluoroborate in deuterated water was prepared. NMR spectra were recorded immediately, after 1, 2 and 17 hours, then after one and two weeks.

[15] = read-out: IC50 (avg), K1 P. falciparum, average of duplicates

Molecule | IC50 [2] | IC50 [3] | RF resistance factor: IC50 resistant line/IC50 parent line [3] | IC50 [4] | RF resistance factor: IC50 resistant line/IC50 parent line [4] | IC50 [5] | IC50 [6] | IC50 [7] | % Inhibition, Trypanosoma cruzi (T. cruzi (MHOM/BR/00/Y); 30 μM) | % Inhibition, Trypanosoma brucei ([8]; 0.1 μM) | % Inhibition, Trypanosoma brucei ([8]; 0.3 μM) | % Inhibition, Trypanosoma brucei ([8]; 1 μM) | % Inhibition, Trypanosoma brucei ([8]; 3 μM) | % Inhibition, Trypanosoma brucei ([8]; 10 μM) | % Inhibition, Trypanosoma brucei ([8]; 30 μM) | RF resistance factor: IC50 resistant line/IC50 parent line [6] | % Inhibition, Trypanosoma cruzi (T. cruzi (MHOM/BR/00/Y); 1 μM) | % Inhibition, Trypanosoma cruzi (T. cruzi (MHOM/BR/00/Y); 3 μM) | % Inhibition, Trypanosoma cruzi (T. cruzi (MHOM/BR/00/Y); 10 μM) | also measured
c1ccc(-c2cc(N3CC3)cc(-c3ccccn3)n2)nc1 [4′-aziridinoterpyridine, 4′-Aziridino-2,2′:6′,2″-Terpyridine] |  |  |  |  |  |  |  |  |  |  |  |  |  |  |  |  |  |  |  | stability to base [1]: No change in the NMR spectrum
Cc1ccncc1.F[B-](F)(F)F.F[B-](F)(F)F.[Pt+2].c1ccc(-c2cccc(-c3ccccn3)n2)nc1 [A, 4-picoline-2,2′:6′:2″-terpyridine-platinum(II) tetrafluoroborate] | 14 µM | 11 µM | 0.8 | 4.4 µM | 0.3 | 17 µM | > 100 µM | 20 µM | 100% | 100% | 100% | 100% | 100% | 100% | 100% |  |  |  |  | % Inhibition, Trypanosoma brucei ([8]; 0.03 μM): 83.3%; equilibrium binding constant, second binding mode (polyfd(A-T)2); site size of about 2 base pairs): about 1×10^6 M^−1; equilibrium binding constant, most stable binding mode (polyfd(A-T)2); site size of about 4 base pairs): approximately 2×10^7 M^−1; DNA unwinding / intercalation in ligation assay (DNA [9]): unwind and so intercalate into DNA; displacement of ethidium bromide bound to DNA (DNA [10]): displaces ethidium bromide bound to DNA; growth delay (GD) ([11]; 30 mg/kg (lower dose) intraperitoneally, weekly for 4 weeks): 83.1; local peritoneal organ damage ([11]; 60 mg/kg (higher dose) i.p. weekly for 4 weeks): evidence, of local peritoneal organ damage; deaths due to drug toxicity ([11]; 30 and 60 mg/kg i.p. weekly for 4 weeks): no deaths due to drug toxicity; effect on tumour growth (Relative Tumour Volume) ([11]; 30 and 60 mg/kg i.p. weekly for 4 weeks, especially at the lower dose): induces a growth inhibitory effect; toxicity, single intraperitoneal injection ([12]; 50 mg/kg in water): no toxic affect; toxicity, single intraperitoneal injection ([12]; 100 mg/kg in water): toxic; LD50 ([12]; single intraperitoneal injection): approximately 70 mg/kg
[Cl-].[Cl-].[Pt+2].c1ccc(-c2cccc(-c3ccccn3)n2)nc1 [Compound A13, chloro(2,2′:6′,2″-terpyridine)platinum(II) chloride] | 6.6 µM | 6.4 µM | 1 | 3.75 µM | 0.6 | 49 µM | 41 µM | 19.5 µM | 99.3% | 26.2% | 100% | 100% | 100% | 100% | 100% | 0.8 | 52.0% | 76.0% | 99.0% | binding association constant with ct-DNA (calf-thymus (ct)-DNA): essentially the same binding constant
Cc1cc[n+]([Pt-2]23[n+]4ccccc4-c4cc(Cl)cc([n+]42)-c2cccc[n+]23)cc1.F[B-](F)(F)F.F[B-](F)(F)F [I] | 6.35 µM | 6.4 µM | 1 | 0.425 µM | 0.07 | 14.5 µM | 14.5 µM | 5.6 µM | 100% | 99.2% | 83.8% | 100% | 100% | 100% | 100% | 1 | 59.7% | 73.5% | 97.0% | % Inhibition (compound duplicates), K1 P. falciparum ([13]; Concn. 15 μM): 14.2% and 9.4%; % Inhibition (compound duplicates), K1 P. falciparum ([13]; Concn. 30 μM): 93.2% and 90.9%; % Inhibition (compound duplicates), K1 P. falciparum ([13]; Concn. 75 μM): 1.9% and 2.1%; % Inhibition (compound duplicates), K1 P. falciparum ([13]; Concn. 375 μM): 0%; % Inhibition (compound duplicates), K1 P. falciparum ([13]; Concn. 1875 μM): 0%; % Inhibition (compound duplicates), K1 P. falciparum ([13]; Concn. 09375 μM): 0%; % Inhibition (compound duplicates), K1 P. falciparum ([13]; Concn. 046875 μM): 0%; % Inhibition (compound duplicates), K1 P. falciparum ([13]; Concn. 0234375 μM): 0%; IC50 [13, 15]: 20.6 µM; IC50 ([13]; read-out: IC50, K1 P. falciparum, each duplicate (1),(2)): 19.9 µM and 21.2 µM
Cc1cc[n+]([Pt-2]23[n+]4ccccc4-c4cc(-c5ccc(Br)cc5)cc([n+]42)-c2cccc[n+]23)cc1.F[B-](F)(F)F.F[B-](F)(F)F [Q] | 5 µM | 5.8 µM | 1.2 | 1.05 µM | 0.2 | 39 µM | 29.5 µM | > 100 µM |  | 0% | 100% | 100% | 100% | 100% | 100% | 0.8 |  |  |  | % Inhibition (compound duplicates), K1 P. falciparum ([13]; Concn. 15 μM): 97.0%; % Inhibition (compound duplicates), K1 P. falciparum ([13]; Concn. 30 μM): 99.8%; % Inhibition (compound duplicates), K1 P. falciparum ([13]; Concn. 75 μM): 98.6%; % Inhibition (compound duplicates), K1 P. falciparum ([13]; Concn. 375 μM): 60.8%; % Inhibition (compound duplicates), K1 P. falciparum ([13]; Concn. 1875 μM): 46.1%; % Inhibition (compound duplicates), K1 P. falciparum ([13]; Concn. 09375 μM): 0%; % Inhibition (compound duplicates), K1 P. falciparum ([13]; Concn. 046875 μM): 0%; % Inhibition (compound duplicates), K1 P. falciparum ([13]; Concn. 0234375 μM): 0%; IC50 [13, 15]: 2.4 µM
Cc1ccncc1.F[B-](F)(F)F.F[B-](F)(F)F.[Pt+2].c1ccc(-c2cc(N3CC3)cc(-c3ccccn3)n2)nc1 [T, (4-Picoline)(4′-Aziridino-2,2′:6′,2″-Terpyridine) Platinum (II) Tetra-fluoroborate] | 4.6 µM | 3.7 µM |  | 4.2 µM |  | 7.7 µM | 20 µM | 19 µM | 0% | 54.2% | 78.9% | 100% | 100% | 100% | 100% |  | 0% | 0% | 0% | stability in aqueous solution [14]: stable to nucleophilic attack by water under neutral conditions
hydroxyethanethiol-2,2′:6′,2″-terpyridine-platinum(II) [1,R═SCH2CH2OH, reference compound] |  |  |  |  |  |  |  |  |  |  |  |  |  |  |  |  |  |  |  | binding association constant with ct-DNA (calf-thymus (ct)-DNA): 83000 M⁻¹

Reference: patent US20020013306A1, “TERPYRIDINE-PLATINUM(II) COMPLEXES” (priority 1996, published 2002)
